Laboratory results reported in US20260209228A1 (Elanco Tiergesundheit AG, priority 2018, published 2026).

Legend:
[1] = system: H. contortus (H.c.) larvae; test: Ruminant gastrointestinal H. contortus larvae motility inhibition (Example B); conditions: Haemonchus contortus, read-out: EC50 (motility inhibition)
Experimental: H.c. eggs isolated from lamb fecal matter are allowed to hatch overnight. Test compounds are diluted in DMSO and added to a 96-well plate containing appropriate media. H.c. larvae are added to each well and plates are incubated for the desired time(s). Motility is assessed using an LCD camera imaging system. Percent motility inhibition values are generated relative to the average of the DMSO-only wells.

[2] = system: D. immitis microfilariae; test: Dog heart worm microfilariae motility inhibition (Example A); format: cell-based; conditions: read-out: EC50 (motility inhibition)
[3] = system: L. sigmodontis; test: L.s. model (Example E); conditions: mice infected s.c. with L. sigmodontis larvae; oral gavage, dose between 1×3 mg/kg and 5×32 mg/kg; necropsy 5 weeks after infection
Experimental: Mice, injected subcutaneously with infective L. sigmodontis larvae, were subsequently treated with the test article formulated in eg DMSO/PEG 2/1, by oral gavage at a dose in a range between 1×3 mg/kg up to 5×32 mg/kg (one dose per day for 5 consecutive days). At necropsy 5 weeks after infection, efficacy is calculated by counting developed larvae vs. untreated animals using Abbot's formula.

[4] = system: H. contortus; test: Gastro intestinal nematodes jird model, H. contortus only (Example C); conditions: jirds; H. contortus from stomach; oral, Day 6 after infection, dose between 1×3 mg/kg and 1×32 mg/kg; necropsy three days after treatment
Experimental: Jirds (Meriones unguiculatus), are artificially infected by gavage with third instar larvae each of T. colubriformis and H. contortus. Then treated orally with the test compound formulated in eg DMSO/PEG 2/1, on Day 6 after infection at a dose in a range between 1×3 mg/kg up to 1×32 mg/kg. Three days after treatment, gerbils are euthanized and dissected to recover H. contortus from stomach and T. colubriformis from the small intestine. Efficacy is expressed as a % reduction in worm numbers in comparison with a placebo treated group, using the Abbot's formula.

SMILES	EC50 [1] [µg/mL]	EC50 [2] [µg/mL]	efficacy (developed larvae vs. untreated animals, Abbot's formula) [3] [%]	efficacy against He (% reduction in worm numbers vs placebo treated group, Abbot's formula) [4] [%]
C[C@H]1COc2ccccc2[C@H]1NC(=O)c1cnc2c(-c3cc(Cl)cc(Cl)c3)nccc2c1N(C)C (racemic) [Example 1.39, 8-(3,5-dichlorophenyl)-4-(dimethylamino)-N-[rac-(3R,4S)-3-methylchroman-4-yl]-1,7-naphthyridine-3-carboxamide]	< 1	< 0.1	–	–
CN(C)c1c(C(=O)N[C@H]2CCOc3ccccc32)cnc2c(-c3cc(Cl)cc(Cl)c3)nccc12 [Example 1.1, N-[(4S)-chroman-4-yl]-8-(3,5-dichlorophenyl)-4-(dimethylamino)-1,7-naphthyridine-3-carboxamide]	< 1	< 0.1	–	–
CN(C)c1c(C(=O)N[C@H]2CCOc3ccccc32)cnc2c(N3CCc4cc(Cl)ccc43)nccc12 [Example 1.7, 8-(5-chloroindolin-1-yl)-N-[(4S)-chroman-4-yl]-4-(dimethylamino)-1,7-naphthyridine-3-carboxamide]	< 1	–	–	–
CN(C)c1c(C(=O)N[C@H]2CCOc3ccccc32)cnc2c(-n3ccc4cc(Cl)ccc43)nccc12 [Example 1.8]	< 1	< 0.1	> 70	–
O=C(N[C@H]1CCOc2ccccc21)c1cnc2c(-c3cc(Cl)cc(Cl)c3)nccc2c1N1CCOCC1 [Example 1.9, N-[(4S)-chroman-4-yl]-8-(3,5-dichlorophenyl)-4-morpholino-1,7-naphthyridine-3-carboxamide]	< 1	< 0.1	–	–
Nc1c(C(=O)N[C@H]2CCOc3ccccc32)cnc2c(-c3cc(Cl)cc(Cl)c3)nccc12 [Example 1.12, 4-amino-N-[(4S)-chroman-4-yl]-8-(3,5-dichlorophenyl)-1,7-naphthyridine-3-carboxamide]	< 1	< 0.1	–	–
CN(C)c1c(C(=O)N[C@H]2CCOc3cc(F)ccc32)cnc2c(-c3cc(Cl)cc(Cl)c3)nccc12 [Example 1.17, 8-(3,5-dichlorophenyl)-4-(dimethylamino)-N-[(4S)-7-fluorochroman-4-yl]-1,7-naphthyridine-3-carboxamide]	< 1	< 0.1	–	–
O=C(N[C@H]1CCOc2ccccc21)c1cnc2c(-c3cc(Cl)cc(Cl)c3)nccc2c1C1CC1 [Example 1.20, N-[(4S)-chroman-4-yl]-4-cyclopropyl-8-(3,5-dichlorophenyl)-1,7-naphthyridine-3-carboxamide]	< 1	< 0.1	–	–
CN(C)c1c(C(=O)N[C@H]2CCc3ccccc32)cnc2c(-c3cc(Cl)cc(Cl)c3)nccc12 [Example 1.21, 8-(3,5-dichlorophenyl)-4-(dimethylamino)-N-[(1S)-indan-1-yl]-1,7-naphthyridine-3-carboxamide]	< 1	< 0.1	–	–
COc1ccc(F)c(-c2nccc3c(N(C)C)c(C(=O)N[C@H]4CCOc5ccccc54)cnc23)c1F [Example 1.24, N-[(4S)-chroman-4-yl]-8-(2,6-difluoro-3-methoxyphenyl)-4-(dimethylamino)-1,7-naphthyridine-3-carboxamide]	< 1	< 0.1	–	–
O=C(N[C@H]1CCOc2ccccc21)c1cnc2c(-c3cc(Cl)cc(Cl)c3)nccc2c1Cl [Example 1.30, 4-chloro-N-[(4S)-chroman-4-yl]-8-(3,5-dichlorophenyl)-1,7-naphthyridine-3-carboxamide]	–	< 0.1	–	–
CON(C)c1c(C(=O)N[C@H]2CCOc3ccccc32)cnc2c(-c3cc(Cl)cc(Cl)c3)nccc12 [Example 1.31, N-[(4S)-chroman-4-yl]-8-(3,5-dichlorophenyl)-4-[methoxy(methyl)amino]-1,7-naphthyridine-3-carboxamide]	< 1	< 0.1	–	–
CN(C)c1c(C(=O)N[C@H]2CCCc3ccccc32)cnc2c(-c3cc(Cl)cc(Cl)c3)nccc12 [Example 1.32, 8-(3,5-dichlorophenyl)-4-(dimethylamino)-N-[(1S)-tetralin-1-yl]-1,7-naphthyridine-3-carboxamide]	< 1	< 0.1	–	–
COc1c(C(=O)N[C@H]2CCOc3ccccc32)cnc2c(-c3cc(Cl)cc(Cl)c3)nccc12 [Example 1.33, N-[(4S)-chroman-4-yl]-8-(3,5-dichlorophenyl)-4-methoxy-1,7-naphthyridine-3-carboxamide]	< 1	< 0.1	–	–
O=C1CN(c2c(C(=O)N[C@H]3CCOc4ccccc43)cnc3c(-c4cc(Cl)cc(Cl)c4)nccc23)CN1 [Example 1.37, N-[(4S)-chroman-4-yl]-8-(3,5-dichlorophenyl)-4-(4-oxoimidazolidin-1-yl)-1,7-naphthyridine-3-carboxamide]	< 1	< 0.1	–	–
N#CCc1c(C(=O)N[C@H]2CCOc3ccccc32)cnc2c(-c3cc(Cl)cc(Cl)c3)nccc12 [Example 1.38, N-[(4S)-chroman-4-yl]-4-(cyanomethyl)-8-(3,5-dichlorophenyl)-1,7-naphthyridine-3-carboxamide]	< 1	< 0.1	–	–

SMILES	EC50 [1] [µg/mL]	EC50 [2] [µg/mL]	efficacy (developed larvae vs. untreated animals, Abbot's formula) [3] [%]	efficacy against He (% reduction in worm numbers vs placebo treated group, Abbot's formula) [4] [%]
CC(C)c1c(C(=O)N[C@H]2CCOc3ccccc32)cnc2c(-c3cc(Cl)cc(Cl)c3)nccc12 [Example 1.42, N-[(4S)-chroman-4-yl]-8-(3,5-dichlorophenyl)-4-isopropyl-1,7-naphthyridine-3-carboxamide]	< 1	< 0.1	–	–
Cc1ccc2c(c1)OCC[C@@H]2NC(=O)c1cnc2c(-c3cc(Cl)cc(Cl)c3)nccc2c1N(C)C [Example 1.45, 8-(3,5-dichlorophenyl)-4-(dimethylamino)-N-[(4S)-7-methylchroman-4-yl]-1,7-naphthyridine-3-carboxamide]	< 1	< 0.1	–	–
CN(C)c1c(C(=O)N[C@@H]2CCOc3ccsc32)cnc2c(-c3cc(Cl)cc(Cl)c3)nccc12 [Example 1.47, 8-(3,5-dichlorophenyl)-N-[(7R)-6,7-dihydro-5H-thieno[3,2-b]pyran-7-yl]-4-(dimethylamino)-1,7-naphthyridine-3-carboxamide]	< 1	< 0.1	–	–
CN(C)c1c(C(=O)N[C@H]2CCOc3ccccc32)cnc2c(-c3cc(F)cc(F)c3)nccc12 [Example 1.48, N-[(4S)-chroman-4-yl]-8-(3,5-difluorophenyl)-4-(dimethylamino)-1,7-naphthyridine-3-carboxamide]	< 1	< 0.1	–	–
CN(C)c1c(C(=O)N[C@H]2CCOc3ccccc32)cnc2c(-c3ccccc3F)nccc12 [Example 1.49, N-[(4S)-chroman-4-yl]-8-(2-fluorophenyl)-4-(dimethylamino)-1,7-naphthyridine-3-carboxamide]	–	< 0.1	–	–
CN(C)c1c(C(=O)N[C@H]2CCOc3ccccc32)cnc2c(-c3cc(F)cc(F)c3F)nccc12 [Example 1.50, N-[(4S)-chroman-4-yl]-4-(dimethylamino)-8-(2,3,5-trifluorophenyl)-1,7-naphthyridine-3-carboxamide]	< 1	< 0.1	–	> 90
CN(C)c1c(C(=O)N[C@H]2CCOc3ccccc32)cnc2c(-c3cc(F)c(F)c(F)c3)nccc12 [Example 1.51, N-[(4S)-chroman-4-yl]-4-(dimethylamino)-8-(3,4,5-trifluorophenyl)-1,7-naphthyridine-3-carboxamide]	< 1	< 0.1	–	–
CN(C)c1c(C(=O)N[C@H]2CCOc3ccccc32)cnc2c(-c3cc(C(F)(F)F)cc(C(F)(F)F)c3)nccc12 [Example 1.52, 8-[3,5-bis(trifluoromethyl)phenyl]-N-[(4S)-chroman-4-yl]-4-(dimethylamino)-1,7-naphthyridine-3-carboxamide]	–	< 0.1	–	–
CN(C)c1c(C(=O)N[C@H]2CCOc3ccccc32)cnc2c(-c3ccc(Cl)cc3Cl)nccc12 [Example 1.54, N-[(4S)-chroman-4-yl]-8-(2,4-dichlorophenyl)-4-(dimethylamino)-1,7-naphthyridine-3-carboxamide]	< 1	< 0.1	–	–
CN(C)c1c(C(=O)N[C@H]2CCOc3ccccc32)cnc2c(-c3cccc(Cl)c3Cl)nccc12 [Example 1.55, N-[(4S)-chroman-4-yl]-8-(2,3-dichlorophenyl)-4-(dimethylamino)-1,7-naphthyridine-3-carboxamide]	< 1	< 0.1	–	–
CN(C)c1c(C(=O)N[C@H]2CCOc3ccccc32)ncc2c(-c3cc(Cl)cc(Cl)c3)cccc12 [Example 2.1, N-[(4S)-chroman-4-yl]-8-(3,5-dichlorophenyl)-4-(dimethylamino) isoquinoline-3-carboxamide]	< 1	< 0.1	–	–
CN(C)c1c(C(=O)N[C@H]2CCOc3ccccc32)ncc2c(-c3cc(Cl)cc(Cl)c3)nccc12 [Example 3.1, N-[(4S)-chroman-4-yl]-8-(3,5-dichlorophenyl)-4-(dimethylamino)-2,7-naphthyridine-3-carboxamide]	< 1	–	–	–
CN(C)c1c(C(=O)N[C@H]2CCOc3ccccc32)ccc2c(-c3cc(Cl)cc(Cl)c3)nccc12 [Example 4.1, N-[(4S)-chroman-4-yl]-1-(3,5-dichlorophenyl)-5-(dimethylamino)isoquinoline-6-carboxamide]	< 1	< 0.1	–	–
CN(C)c1c(C(=O)N[C@H]2CCOc3ccccc32)ccc2c(-c3cc(Cl)cc(Cl)c3)cccc12 [Example 5.1]	< 1	< 0.1	–	–
CN(C)c1c(C(=O)N[C@H]2CCOc3ccccc32)ccc2c(-c3cc(Cl)cc(Cl)c3)ccnc12 [Example 6.1, N-[(4S)-Chroman-4-yl]-4-(3,5-dichlorophenyl)-8-(dimethylamino)quinoline-7-carboxamide]	< 1	< 0.1	–	–
CN(C)c1c(C(=O)N[C@H]2CCOc3ccccc32)ccc2c(-c3cc(Cl)cc(Cl)c3)cncc12 [Example 7.1, N-[(4S)-Chroman-4-yl]-4-(3,5-dichlorophenyl)-8-(dimethylamino)isoquinoline-7-carboxamide]	< 1	< 0.1	–	–
